{"source": "patent US20240368556A1", "about": "“LIVER ORGANOID MODEL FOR HYPERBILIRUBINEMIA AND METHODS OF MAKING AND USING SAME” (CHILDREN’S HOSPITAL MEDICAL CENTER, priority 2021, published 2024)", "format_in_all_cases": "cell-based, human", "key": {"liver organoids [1]": {"system": "liver organoids", "assay": "Bilirubin assay measuring unconjugated and conjugated bilirubin in liver organoids", "details": "liver organoids in 10 mg/L bilirubin; drug 1 or 5 μM (FIG. 4B, 4D)", "procedure": "Bilirubin levels were measured by collecting the supernatant from HLOs treated with bilirubin and serum from rats. The supernatant and serum were assayed with Bilirubin Assay Kit (Total and Direct, Colorimetric) (abcam) and Bilirubin Assay Kit (Sigma-Aldrich) according to manufacturer instructions."}, "UGT1A1": {"system": "UGT1A1", "assay": "RT-qPCR of UGT1A1 in liver organoids", "details": "10 mg/L bilirubin plus drug vs 10 mg/L bilirubin alone (FIG. 4E)", "procedure": "(§1) On day 27, the mature organoids were treated with bilirubin (1-10 mg/L), doxycycline (100 ng/mL; added 3 days prior to activate gene expression) and/or additionally with drugs such as hydrocortisone, dexamethasone, ketoconazole and mifepristone (1-2 μM for each) for 5 days and then harvested for downstream assays. Bilirubin assay was performed using a colorimetric kit (ab235627 from Abcam). RNA was isolated using the RNeasy mini kit (Qiagen, Hilden, Germany). Reverse transcription was carried out using the High-Capacity cDNA Reverse Transcription Kit (Thermo Fisher Scientific Inc.) according to manufacturer's protocol. qPCR was carried out using TaqMan gene expression master mix (Applied Biosystems) on a QuantStudio 5 Real-Time PCR System (Thermo Fisher Scientific Inc.). All primers and probe information for each target gene was obtained from the Universal ProbeLibrary Assay Design Center (available on the World Wide Web at lifescience.roche.com/en_us/brands/universal-probe-library.html). Images were captured on the KEYENCE BZ-X710 Fluorescence Microscope (Keyence)."}, "liver organoids [2]": {"system": "liver organoids", "assay": "Immunofluorescence of mature liver enzymes and transport proteins", "details": "1 mg/L bilirubin (FIGS. 1F-H)", "procedure": "For maturation induction in HLOs, the day 15 organoids were fed with complete HCM with supplements in addition to low dose bilirubin (1 mg/L). This treatment was continued until day 30 when the organoids were harvested. […] For whole mount immunostains, the organoids were fixed in 4% PFA, permeabilized with 0.1% PBST, blocked with 5% Normal Donkey Serum in 0.1% PBST, and stained with the appropriate primary and secondary antibodies. The images were captured on the Nikon A1 inverted confocal microscope."}, "liver organoids [3]": {"system": "liver organoids", "assay": "Hyperbilirubinemia induction: HLOs treated with varying bilirubin concentrations (brightfield)", "details": "bilirubin 1, 2, 5 or 10 mg/L, 1 and 4 days (FIG. 3B)", "procedure": "as §1"}, "CYP1A2": {"system": "CYP1A2", "assay": "CYP1A2 activity assay (P450-Glo) after omeprazole", "procedure": "(§2) CYP3A4 and CYP1A2 assays were performed by harvesting HLOs, washing in PBS, plating them into a 96 well assay plate, and treating them with rifampicin and omeprazole, respectively, for 24 hours. The assays were then performed using P450-Glo CYP3A4 and CYP1A2 Assay (Promega) and normalized using CellTiter-Glo Luminescent Cell Viability Assay according to manufacturer instructions."}, "CNS HLOs": {"system": "CNS HLOs", "assay": "Bilirubin toxicity in Crigler-Najjar syndrome liver organoids (brightfield)", "details": "10 mg/L bilirubin, inactive UGT1A1 gene (FIG. 3H)", "method": "On day 27, the mature organoids were treated with bilirubin (1-10 mg/L), doxycycline (100 ng/mL; added 3 days prior to activate gene expression) and/or additionally with drugs such as hydrocortisone, dexamethasone, ketoconazole and mifepristone (1-2 μM for each) for 5 days and then harvested for downstream assays. […] Images were captured on the KEYENCE BZ-X710 Fluorescence Microscope (Keyence)."}, "CYP3A4": {"system": "CYP3A4", "assay": "CYP3A4 activity assay (P450-Glo) after rifampicin", "procedure": "as §2"}, "NRF2": {"system": "NRF2", "assay": "RT-qPCR of NRF2 in liver organoids", "details": "10 mg/L bilirubin plus drug vs 10 mg/L bilirubin alone (FIG. 4E)", "procedure": "as §1"}, "UGT1A1 gene": {"system": "UGT1A1 gene", "assay": "ChIP-PCR and ChIP-qPCR of hyperbilirubinemic organoids", "details": "10 mg/L bilirubin, 1 μM drug (FIG. 4H)"}, "liver organoids [4]": {"system": "liver organoids", "assay": "RNA sequencing of HLOs", "details": "10 mg/L bilirubin and 1 μM mifepristone vs control (FIG. 4F)", "procedure": "RNA was isolated using the RNeasy mini kit (Qiagen). […] All the samples were amplified with TaqMan Gene Expression Assays and normalized with 18S rRNA Endogenous Control. For RNA sequencing, the extracted RNA quality was evaluated with an Agilent 2100 Bioanalyzer (Agilent). A sequence library was prepared using a TruSeq Stranded mRNA kit (Illumina) and sequenced using NovaSeq 6000 (Illumina). Reads were aligned to human genome assembly hg38 and quantified using the quasi-mapper Salmon (v1.8.0). Gene-expression analysis was performed using the R Bioconductor package DESeq2 (v1.36.0). The read count matrix was normalized by size factors, and a variance stabilizing transformation (VST) was applied to the normalized expression data. The data was visualized using clusterProfiler (v.4.4.1) and pheatmap (v1.0.12) packages. […] RNA sequencing parameters were 150 bp paired-end sequencing at a depth of 20M reads per samples. Fastq read files for each sample were obtained and then aligned using Salmon, a quasi-mapping tool that aligns and quantifies transcripts using RNA-seq data. Raw transcript counts and normalized transcripts per million (TPM) values were obtained and analyzed for differential expression with DESeq2. […]"}, "mGULO organoids": {"system": "mGULO organoids", "assay": "Survival and morphology of mGULO organoids with doxycycline induction", "details": "Dox 10, 100, 1000 ng/mL, with bilirubin (FIG. 2O)"}}, "note": "“Also recorded” adds a separate entry of the source.", "data": [{"smiles": "C[C@]12CCC(=O)C=C1CC[C@@H]1[C@@H]2[C@@H](O)C[C@@]2(C)[C@H]1CC[C@]2(O)C(=O)CO", "note": "[hydrocortisone]", "values": [{"measurement": "bilirubin conjugation (unconjugated vs conjugated bilirubin)", "setting": "liver organoids [1]", "value": "decreased bilirubin conjugation ability"}, {"measurement": "UGT1A1 expression", "setting": "UGT1A1", "value": "depressed"}]}, {"smiles": "C=CC1=C(C)/C(=C/c2[nH]c(Cc3[nH]c(/C=C4\\NC(=O)C(C)=C4C=C)c(C)c3CCC(=O)O)c(CCC(=O)O)c2C)NC1=O", "note": "[bilirubin]", "values": [{"measurement": "expression of CYP2E1, CYP7A1, MPR1, MRP3, PROX1, OATP2 (immunofluorescence)", "setting": "liver organoids [2]", "value": "expressed mature liver enzymes and transport proteins"}, {"measurement": "organoid morphology and intracellular bilirubin accumulation", "setting": "liver organoids [3]", "value": "significant morphological changes and intracellular accumulation of bilirubin"}, {"measurement": "CYP1A2 activity", "setting": "CYP1A2; 1 mg/L bilirubin-treated organoids, after omeprazole, vs untreated control (FIG. 1E)", "value": "increased cytochrome activity"}, {"measurement": "organoid toxicity in CNS HLOs", "setting": "CNS HLOs", "value": "liver organoid toxicity"}, {"measurement": "CYP3A4 activity", "setting": "CYP3A4; 1 mg/L bilirubin-treated organoids, after rifampicin, vs untreated control (FIG. 1E)", "value": "increased cytochrome activity"}]}, {"smiles": "CC(=O)N1CCN(c2ccc(OCC3COC(Cn4ccnc4)(c4ccc(Cl)cc4Cl)O3)cc2)CC1", "note": "(stereo not drawn) [ketoconazole]", "values": [{"measurement": "bilirubin conjugation (unconjugated vs conjugated bilirubin)", "setting": "liver organoids [1]", "value": "improved conjugation and metabolism of bilirubin; also recorded: increased bilirubin conjugation"}, {"measurement": "NRF2 expression", "setting": "NRF2", "value": "improved"}, {"measurement": "UGT1A1 expression", "setting": "UGT1A1", "value": "elevated"}]}, {"smiles": "CC#C[C@]1(O)CC[C@H]2[C@@H]3CCC4=CC(=O)CCC4=C3[C@@H](c3ccc(N(C)C)cc3)C[C@@]21C", "note": "[mifepristone]", "values": [{"measurement": "bilirubin conjugation (unconjugated vs conjugated bilirubin)", "setting": "liver organoids [1]", "value": "improved conjugation and metabolism of bilirubin; also recorded: increased bilirubin conjugation"}, {"measurement": "silencing of the UGT1A1 gene (MECP2)", "setting": "UGT1A1 gene", "value": "reverses this silencing"}, {"measurement": "NRF2 expression", "setting": "NRF2", "value": "improved"}, {"measurement": "UGT1A1 expression", "setting": "UGT1A1", "value": "elevated"}, {"measurement": "gene expression / enriched pathways", "setting": "liver organoids [4]", "value": "enrichment of many genes involved in liver function"}]}, {"smiles": "C[C@H]1c2cccc(O)c2C(=O)C2=C(O)[C@]3(O)C(=O)C(C(N)=O)=C(O)[C@@H](N(C)C)[C@@H]3[C@@H](O)[C@@H]21", "note": "[doxycycline]", "values": [{"measurement": "gross morphology of mGULO organoids", "setting": "mGULO organoids", "value": "maintain their gross morphology"}, {"measurement": "CYP1A2 activity", "setting": "CYP1A2; mGULO organoids, Dox plus low dose bilirubin, omeprazole insult (FIG. 2P)", "value": "increased"}, {"measurement": "CYP3A4 activity", "setting": "CYP3A4; mGULO organoids, Dox plus low dose bilirubin, rifampicin insult (FIG. 2P)", "value": "increased"}]}]}
